Source: PubChem BioAssay (NCI)
Where “and” joins values, the source holds several entries; their conditions need not be identical. Equal values may be shown once.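 In this assay, cells in 96-well plates receive the compound at five concentrations for 48 hours. Endpoints are linearly interpolated between the surrounding concentrations. Abbreviation: GI50, concentration required for 50% inhibition of growth. Definition used: TGI = concentration required for complete inhibition of growth.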 Where a SMILES comes first, the peptide text is derived from it. [ ]: non-standard residue; d: D form. The star is where a group is joined. X28 = COC1=CC(=O)N(C(=O)[C@@H](O*)C(C)C)[C@H]1Cc1ccccc1; NMeL = CN[C@@H](CC(C)C)C(=O)O; Cbz = O=C(OCc1ccccc1)*

Columns and labels:
Assay in all cases: NCI tumour cell line growth inhibition, 48 h
NCI-H460 lung = test system: NCI-H460 lung
UO-31 renal = test system: UO-31 renal
HS 578T breast = test system: HS 578T breast
OVCAR-4 ovarian = test system: OVCAR-4 ovarian
UACC-257 melanoma = test system: UACC-257 melanoma
DU-145 prostate = test system: DU-145 prostate
A549 NSCLC = test system: A549 NSCLC
MDA-N = test system: MDA-N
RPMI-8226 leukemia = test system: RPMI-8226 leukemia
SK-MEL-28 melanoma = test system: SK-MEL-28 melanoma

Compound	TGI (NCI-H460 lung)	TGI (UO-31 renal)	TGI (HS 578T breast)	TGI (OVCAR-4 ovarian)	TGI (UACC-257 melanoma)	TGI (DU-145 prostate)	TGI (A549 NSCLC)	TGI (MDA-N)	TGI (RPMI-8226 leukemia)	TGI (SK-MEL-28 melanoma)	GI50 (NCI-H460 lung)	GI50 (RPMI-8226 leukemia)	GI50 (SK-MEL-28 melanoma)
CCN(CC)CCNc1ccc2nnn3c4ccc(OC(C)=O)cc4c(=O)c1c23	11.5 µM	12.3 µM	19.1 µM	8.73 µM	24.9 µM	15.1 µM	> 40.6 µM	17.8 µM	5.56 µM	26.3 µM			
COc1cc(C(c2cc(OC)c(OC)c(OC)c2)N2C(=O)CCC2C(=O)O)cc(OC)c1OC (configuration not stated)	> 100 µM	> 100 µM	> 100 µM	> 100 µM	> 100 µM	> 100 µM	> 100 µM	> 100 µM	> 100 µM	> 100 µM			
COc1cc(C2c3cc4c(cc3OC(N3CCOCC3)C2C)OCO4)cc(OC)c1OC (configuration not stated)	10.2 µM	55.2 µM	0.722 µM	> 100 µM	> 59.7 µM	> 49.6 µM	> 69.2 µM	0.439 µM	> 23.7 µM	> 100 µM			
Cn1c2cc(Cl)ccc2c2ccc3c(c21)C(=O)C=CC3=O	> 100 µM	> 100 µM	> 100 µM	52.3 µM	> 77.3 µM	> 100 µM	> 100 µM	83.1 µM	23.7 µM	63.5 µM			
C/C=C/COc1cc(NC(=S)c2ccoc2C)ccc1OC		> 100 µM	90.7 µM	> 100 µM	> 100 µM	> 100 µM	> 100 µM	> 100 µM	76.7 µM	> 100 µM			
CN(c1ccccc1Cl)S(=O)(=O)c1ccccc1	> 100 µM	> 100 µM	> 100 µM	> 100 µM	> 100 µM	> 100 µM	> 100 µM	> 100 µM	> 100 µM	> 100 µM			
CN1CCN(c2ccc3nc(-c4ccc5nc(-c6ccc(N(C)CCCl)cc6)[nH]c5c4)[nH]c3c2)CC1	5.14 µM	33.8 µM	0.58 µM	1.04 µM	3.34 µM	11.4 µM	10.1 µM	0.511 µM	16.5 µM	1.13 µM			
OC1NC2CC3NC(O)C(O)NC3CC2NC1O (configuration not stated)	> 100 µM	> 100 µM	> 100 µM	> 100 µM	> 100 µM	> 100 µM	> 100 µM	> 100 µM	> 100 µM	> 100 µM			
Cc1cc2nc(NS(=O)(=O)c3cc(C)c(Cl)cc3S)[nH]c2cc1C	43.1 µM	> 100 µM	> 100 µM	> 100 µM	> 100 µM	> 100 µM	> 100 µM	> 100 µM	> 100 µM	> 100 µM			
COc1ccc(-c2c(C(C)=O)c(-c3ccccc3)n(C3OC(COC(C)=O)C(OC(C)=O)C(OC(C)=O)C3OC(C)=O)c(=S)c2C#N)cc1O (configuration not stated)	37.4 µM and > 100 µM	> 100 µM	> 100 µM	98.8 µM and > 100 µM	> 100 µM	94.3 µM and > 100 µM	> 100 µM	81.5 µM and > 100 µM	61.3 µM and > 100 µM	> 100 µM	10.8 µM and 43.5 µM	11.3 µM and 47.5 µM	27.2 µM and 65.9 µM
O=C(OCc1c(-c2ccccc2)nn(-c2ccccc2)c1COC(=O)Oc1ccccc1)Oc1ccccc1	> 100 µM		> 100 µM	> 100 µM	> 100 µM	> 100 µM	> 100 µM	> 100 µM	> 100 µM	> 100 µM			
COc1ccc(CCNC(=S)/N=C\C2=C(O)c3ccccc3C2=O)cc1OC		> 100 µM	72.7 µM	> 100 µM	> 100 µM	> 100 µM	> 100 µM	> 100 µM	> 100 µM	> 100 µM			
CCC(c1nc2ccccc2c(=O)n1NC(=O)C(C)(C)C)C1(O)CCCCC1 (configuration not stated)	> 100 µM	> 100 µM	> 100 µM	> 100 µM	> 100 µM	> 100 µM	> 100 µM	> 100 µM	> 100 µM	> 100 µM			
C/C(=N\Nc1ncnc2ccccc12)c1ccccn1	21.2 µM	1.75 µM	47.5 µM	> 51.5 µM	8.65 µM	13.7 µM	32.6 µM	27.5 µM	1.62 µM	45.6 µM			
CCOc1ccc(C(c2c(O)c3ccccc3oc2=O)c2c(O)c3ccccc3oc2=O)cc1		> 100 µM	> 100 µM	> 100 µM	> 100 µM	> 100 µM	> 100 µM	> 100 µM	93.8 µM	> 100 µM			
CC1(C)N=C(/C(C#N)=[N+](/[O-])C(=O)c2ccccc2)C(C)(C)N1O	> 100 µM	> 100 µM	> 100 µM	> 100 µM	> 100 µM	> 100 µM	> 100 µM	> 100 µM	> 100 µM	> 100 µM			
COC1=CC(=O)N(C(=O)[C@@H](OC(=O)[C@@H]2CCCN2C(=O)[C@@H]2CCCN2C(=O)[C@H](CC(C)C)N(C)C(=O)[C@@H](NC(=O)[C@@H](NC(=O)OCc2ccccc2)C(C)C)C(C)C)C(C)C)[C@H]1Cc1ccccc1 (Cbz-VV[NMeL]PP-X28)	> 100 µM	> 100 µM	> 100 µM	> 100 µM	> 100 µM	> 100 µM	> 100 µM	> 100 µM	> 100 µM	> 100 µM			
S=C1NC2=C(COC/C2=C\c2ccccc2Cl)C(c2ccccc2Cl)N1 (configuration not stated)	> 100 µM	> 100 µM	> 100 µM	> 100 µM	> 100 µM	> 100 µM		> 100 µM	> 100 µM				
COc1cc(C(=O)OC2CC(C)=CC[C@@]3(C)CC[C@](O)(C(C)C)C23)ccc1O (some centres not stated)	32.5 µM	30.4 µM	40.9 µM	30 µM	29.6 µM	32.4 µM	27.7 µM	35.2 µM	53.1 µM	60.2 µM			
